According to patent US20070275984A1, “Novel Thieno-Pyridine and Thieno-Pyrimidine Derivatives and Their Use as Positive Allosteric Modulators of Mglur2-Receptors” (JANSSEN PHARMACEUTICA N.V., priority 2004, published 2007):
Values joined by “and” are separate entries in the source; they are usually repeats but may differ in a detail not shown here. Equal entries are not always repeated.

Experiments:
native rat mGluR2 = biological target: T1, native rat mGluR2 (Rattus norvegicus, UniProt P31421); test: [35S]GTPγS binding assay using cortical rat brain membranes, potentiation of a selective mGluR2 agonist; assay type: biochemical; details: rat cortical membranes; selective mGluR2 agonist such as LY379268; in the presence of 3 or 10 μM of positive allosteric modulator
T1 construct: from tissue; host or cells: cerebral cortex of Sprague-Dawley rats (membrane preparation)
T1 sequence (P31421 19-872): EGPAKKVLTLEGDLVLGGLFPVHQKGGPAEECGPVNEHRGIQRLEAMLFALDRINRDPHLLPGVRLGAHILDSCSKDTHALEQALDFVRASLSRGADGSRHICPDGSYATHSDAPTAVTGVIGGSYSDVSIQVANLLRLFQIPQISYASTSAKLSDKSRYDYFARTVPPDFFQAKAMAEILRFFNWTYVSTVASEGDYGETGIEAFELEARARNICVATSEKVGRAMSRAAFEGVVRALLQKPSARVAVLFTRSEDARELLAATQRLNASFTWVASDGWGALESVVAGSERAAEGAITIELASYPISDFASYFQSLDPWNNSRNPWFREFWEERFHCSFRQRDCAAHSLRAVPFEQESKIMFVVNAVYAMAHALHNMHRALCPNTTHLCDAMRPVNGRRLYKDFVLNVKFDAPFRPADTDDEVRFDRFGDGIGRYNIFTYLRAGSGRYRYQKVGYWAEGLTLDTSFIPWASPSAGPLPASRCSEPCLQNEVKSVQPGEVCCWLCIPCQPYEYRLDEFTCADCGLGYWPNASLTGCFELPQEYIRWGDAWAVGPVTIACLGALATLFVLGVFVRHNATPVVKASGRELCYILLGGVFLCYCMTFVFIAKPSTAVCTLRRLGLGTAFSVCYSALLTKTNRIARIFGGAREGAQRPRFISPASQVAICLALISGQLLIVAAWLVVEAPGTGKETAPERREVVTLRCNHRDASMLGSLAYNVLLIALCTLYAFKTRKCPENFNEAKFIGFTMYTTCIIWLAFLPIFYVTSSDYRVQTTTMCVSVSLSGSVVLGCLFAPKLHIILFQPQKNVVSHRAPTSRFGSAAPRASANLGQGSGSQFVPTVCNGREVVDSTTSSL
Excerpt: The [^35S]GTPγS binding is a functional membrane-based assay used to study G-protein coupled receptor (GPCR) function. This method is using a binding assay to assess the initial step in receptor-mediated G protein activation in membranes prepared from cells expressing recombinant GPCR or using membranes from discrete area of the rat brain. In brief, the assay is measuring the activation of G proteins by catalyzing the exchange of guanosine 5′-diphosphate (GDP) by guanosine 5′-triphosphate (GTP) at the α subunit. The GTP-bounded G proteins dissociate into two subunits, Gα-GTP and Gβγ, which in turn regulate intracellular enzymes and ion channels. GTP is rapidly hydrolysed by the Gα-subunit (GTPases) and the G protein is deactivated and ready for new GTP exchange cycle (Harper (1998) Curr Protoc Pharmacol 2.6.1-10, John Wiley & Sons, Inc.). [^35S]GTPγS, a non-hydrolyzed analogue of GTP, is used for this purpose.
This method is widely used to study receptor activation of G protein in membranes prepared from rat brain tissue, including mGluR2 receptors (Schaffhauser et al 2003, Pinkerton et al, 2004). mGluR2 receptors are expressed in the rat brain cortex (Mutel et al (1998) J. Neurochem. 71:2558-64; Schaffhauser et al (1998) Mol. Pharmacol. 53:228-33) and are coupled to Gαi-protein, a preferential coupling for this method.
[^35S]GTPγS binding assay using cortical rat brain membranes preparation was used and adapted from Schaffhauser et al ((2003) Mol. Pharmacol. 4:798-810) for the detection of the positive allosteric modulator properties of the compounds of this invention on native rat mGluR2. In order to eliminate the possible interference with group III Gαi-protein coupled mGluRs (mGluR4, mGluR7, mGluR8; mGluR6 is not expressed in the cortex (Laurie et al (1997) Neuropharmacol. 36:145-52)), the potentiation of the response to a selective mGluR2 agonist, such as DCG-IV (Cartmell et al. (1998) Br. J. Pharmacol. 123(3):497-504) or LY379268 (Monn et al. (1999) J. Med. Chem 42:1027-40), by compounds described in the present invention was performed.
Membrane preparation. Cortices were dissected out from brains of 200-300 g Sprague-Dawley rats (Charles River Laboratories, L'Arbresle, France). Tissues were homogenized in 6 volumes (vol/wt) of 10% sucrose at 4° C. using a glass-teflon homogenizer. The homogenate was centrifuged at 1250 g for 10 min, and the supernatant was centrifuged at 40,000 g for 20 min (4° C.). The pellet was resuspended in 25 ml water using a Polytron disrupter (Kinematica AG, Luzern, Switzerland) and centrifuged for 10 min at 3000 g. (4° C.). The supernatant was centrifuged at 40,000 g for 20 min (4° C.). The supernatant was discarded and the pellet washed twice by resuspension in 10 volumes 5 mM HEPES-KOH, pH 7.4. The homogenate was frozen and thawed twice and centrifuged at 40,000 g for 20 min. The final pellet was resuspended in 5 mM HEPES-KOH, pH 7.4 and stored at −80° C. before its use. Protein concentration was determined by the Bradford method (Bio-Rad protein assay, Reinach, Switzerland) with bovine serum albumin as standard.
[^35S]GTPγS binding assay. Measurement of mGluR2 positive allosteric modulators properties in rat cortical membranes was performed as follows: rat cortical membrane (1.5 μg) were incubated in 96-well microplates for 15 min at 30° C. in assay buffer (50 mM HEPES pH 7.4, 100 mM NaCl, 5 mM MgCl2, 10 μM GDP, 10 μg/ml saponin, EGTA 0.2 mM) with increasing concentrations of positive allosteric modulator (from 1 nM to 10 μM) and a minimal concentration of DCG-IV or LY379268, a selective mGluR2 agonist, that has been determined in previous experiments and that corresponds to the EC20, a concentration that gives 20% of the maximal response of the agonist, and is in accordance to published data (Pin et al. (1999) Eur. J. Pharmacol. 375:277-294). […]

Row | Compound | melting point | Activity: left-ward shift of agonist mGluR2 concentration-response curve (native rat mGluR2)
1 | Cc1nc(NCCc2ccc(N)cc2)c2cc(C)sc2n1 [Compound 42, N-(4-aminophenethyl)-2,6-dimethylthieno[2,3-d]pyrimidin-4-amine] | 127 °C | ++ (left-ward shift of agonist mGluR2 concentration-response curve [2- to 3.5-fold])
2 | CC(=O)Nc1ccc(CCNc2nc(C)nc3sc(C)cc23)cc1 [Compound 43, N-(4-(2-(2,6-dimethylthieno[2,3-d]pyrimidin-4-ylamino)ethyl)-phenyl)acetamide] | 248 °C | ++ (left-ward shift of agonist mGluR2 concentration-response curve [2- to 3.5-fold])
3 | Cc1nc(NCCc2ccc(OCc3nn[nH]n3)cc2)c2cc(C)sc2n1 [Compound 46, N-(4-((2H-tetrazol-5-yl)methoxy)phenethyl)-2,6-dimethylthieno[2,3-d]pyrimidin-4-amine] | 205 °C | +++ (left-ward shift of agonist mGluR2 concentration-response curve [>3.5-fold])
4 | Cc1nc(NCCc2cccnc2)c2cc(C)sc2n1 [Compound 49, 2,6-dimethyl-N-(2-(pyridin-3-yl)ethyl)thieno[2,3-d]pyrimidin-4-amine] | 138 °C | + (left-ward shift of agonist mGluR2 concentration-response curve [<2-fold])
5 | OCc1cc2c(NCCc3ccccc3)ncnc2s1 [Compound 58, (4-(phenethylamino)thieno[2,3-d]pyrimidin-6-yl)methanol] | 155 °C and 155 to 155.5 °C | ++ (left-ward shift of agonist mGluR2 concentration-response curve [2- to 3.5-fold])
6 | CCc1cc2c(NCCCc3ccccc3)ncnc2s1 [Compound 75, 6-ethyl-N-(3-phenylpropyl)thieno[2,3-d]pyrimidin-4-amine] | 124.5 °C | ++ (left-ward shift of agonist mGluR2 concentration-response curve [2- to 3.5-fold])
7 | CCCc1cc2c(NCCc3ccccc3)ncnc2s1 [Compound 79, N-phenethyl-6-propylthieno[2,3-d]pyrimidin-4-amine] | 110.5 °C | +++ (left-ward shift of agonist mGluR2 concentration-response curve [>3.5-fold])
8 | CCCc1cc2c(NCCc3ccc(O)cc3)ncnc2s1 [Compound 82, 4-(2-(6-propylthieno[2,3-d]pyrimidin-4-ylamino)ethyl)phenol] | 123.5 °C | +++ (left-ward shift of agonist mGluR2 concentration-response curve [>3.5-fold])
9 | CCc1cc2c(NCCc3ccccc3)ccnc2s1 [Compound 96, 2-ethyl-N-phenethylthieno[2,3-b]pyridin-4-amine] | 88 °C | +++ (left-ward shift of agonist mGluR2 concentration-response curve [>3.5-fold])
